Data: patent publication US8852619B2, “Compositions of dibromomalonamide and their use as biocides” (Dow Global Technologies LLC, priority 2009, dated 2014)
Read-outs that look alike come from different tables or passages of the source.

Tests used:
[1] = Growth inhibition assay (microtiter plate-based synergy assay); assay type: cell-based; conditions: 24 hr, read-out: Percent inhibition of growth; for inhibition at 0.2 ppm: 0.20 ppm; for inhibition at 12.5 ppm: 12.50 ppm
Procedure: (§1) The assay of this Example measures the efficacy of the biocides at preventing growth of a consortium of bacteria in a dilute mineral salts medium. The medium contains (in mg/l) the following components: FeCl3.6H2O (1); CaCl2.2H2O (10); MgSO4.7H2O (22.5); (NH4)2SO4 (40); KH2PO4 (10); K2HPO4 (25.5); Yeast Extract (10); and glucose (100). After all components are added to deionized water, the pH of the medium is adjusted to 7.5. Following filter sterilization, aliquots are dispensed in […] quantities to sterile microtiter plate wells. Dilutions of 2,2-dibromomalonamide (“DBMAL”) and/or “Biocide B” are then added to the microtiter plate. After preparing the combinations of actives as illustrated below, each well is inoculated with 100 μl of a cell suspension containing ca. 1×10^6 cells per milliliter of a mixture of Pseudomonas aeruginosa, Klebsiella pneumoniae, Staphylococcus aureus, and Bacillus subtilis. The final total volume of medium in each well is 300 μl. Once prepared as described herein, the concentration of each active ranges from 25 ppm to 0.195 ppm as illustrated in Table 1. The resulting matrix allows testing of eight concentrations of each active and 64 combinations of actives at varying ratios.
(§2) Controls (not shown) contain the medium with no biocide added. Immediately after the microtiter plates are prepared, the optical density (OD) readings for each well are measured at 600 nm and the plates are then incubated at 37° C. for 24 hr. After the incubation period, the plates are gently agitated before OD values are collected. The OD values at t(0) are subtracted from t(24) values to determine the total amount of growth (or lack thereof) that occurs. These values are used to calculate the percent inhibition of growth caused by the presence of each biocide and each of the 64 combinations.
(§3) where • MDBMAL: Concentration of DBMAL required to inhibit ˜90% of bacterial growth when used in combination with DBNPA. • CDBMAL: Concentration of DBMAL required to inhibit ˜90% of bacterial growth when used alone. • MDBNPA: Concentration of DBNPA required to inhibit ˜90% of bacterial growth when used in combination with DBMAL. • CDBNPA: Concentration of DBNPA required to inhibit ˜90% of bacterial growth when used alone. The SI values are interpreted as follows: • SI<1: Synergistic combination • SI=1: Additive combination • SI>1: Antagonistic combination
(§4) In the Example, the amounts of biocides in the solution are measured in mg per liter of solution (mg/l). Since solution densities are approximately 1.00, the mg/l measurement corresponds to weight ppm. Both units may therefore be used interchangeably in the Examples.

[2] = tested on: consortium of bacteria: mixture of Pseudomonas aeruginosa, Klebsiella pneumoniae, Staphylococcus aureus, and Bacillus subtilis; test: as above; assay type: cell-based; conditions: used alone, 24 hr
Procedure: as §1, §2, §3, §4

[3] = cited from earlier work

SMILES: NC(=O)C(Br)(Br)C(N)=O [DBMAL, 2,2-dibromomalonamide]
- inhibition at 0.2 ppm ([1]; DBMAL alone): 0%
- inhibition at 1.56 ppm ([1]; DBMAL alone): 11%
- inhibition at 6.25 ppm ([1]; DBMAL alone): 38%
- inhibition at 12.5 ppm ([1]; DBMAL alone): 92%
- inhibition at 25 ppm ([1]; DBMAL alone): 96%

SMILES: N#CC(Br)(Br)C(N)=O [DBNPA, 2,2-dibromo-3-nitrilopropionamide]
- Minimum concentration that caused ~90% inhibition of growth (CDBNPA) [2]: 3.13 mg/L
- inhibition at 0.2 ppm ([1]; DBNPA alone): 0%
- inhibition at 0.39 ppm ([1]; DBNPA alone, 0.39 ppm): 0%
- inhibition at 0.78 ppm ([1]; DBNPA alone, 0.78 ppm): 0%
- inhibition at 1.56 ppm ([1]; DBNPA alone): 75%
- inhibition at 3.13 ppm ([1]; DBNPA alone, 3.13 ppm): 98%
- inhibition at 6.25 ppm ([1]; DBNPA alone): 82%
- inhibition at 12.5 ppm ([1]; DBNPA alone): 88%
- inhibition at 25 ppm ([1]; DBNPA alone): 96%
- factor of increase of rate of disappearance ([3]; going from pH 6 to pH 8.9): about 450
- half life (hydrolytic degradation) ([3]; pH 8): 2 h
- half life (hydrolytic degradation) ([3]; pH 11.3): 0.00694 h
